Data reported in article PMC10461227, “Discovery of AD258 as a Sigma Receptor Ligand with Potent Antiallodynic Activity” (Journal of Medicinal Chemistry, 2023).
Several values for one entry are separate records, joined by “and”; a condition that tells them apart may be missing. Equal values may be shown once. Where a name gives a salt, the structure may show the parent alone.

Key:
[1] = Metabolic stability in human liver microsomes; type: in vitro ADME
Protocol: (§1) Moreover, in vitro metabolic studies were performed using mouse and human liver microsomes. Following incubation at 0.1 μM with the liver microsomes for 1 h, reaction samples were analyzed by LC–MS/MS at different time points (0, 15, 30, 45, 60 min).
(§2) In vitro metabolic stability studies were performed by Eurofins Cerep Quality Control Unit (France) using mouse and human liver microsomes fractions in accordance with their validation Standard Operating Procedure.

[2] = target: T1, human serotonin transporter (Homo sapiens, UniProt P31645); test: SERT binding ([3H]Paroxetine)
T1 construct: host or cells: HEK-293 cells
T1 sequence (P31645 whole entry): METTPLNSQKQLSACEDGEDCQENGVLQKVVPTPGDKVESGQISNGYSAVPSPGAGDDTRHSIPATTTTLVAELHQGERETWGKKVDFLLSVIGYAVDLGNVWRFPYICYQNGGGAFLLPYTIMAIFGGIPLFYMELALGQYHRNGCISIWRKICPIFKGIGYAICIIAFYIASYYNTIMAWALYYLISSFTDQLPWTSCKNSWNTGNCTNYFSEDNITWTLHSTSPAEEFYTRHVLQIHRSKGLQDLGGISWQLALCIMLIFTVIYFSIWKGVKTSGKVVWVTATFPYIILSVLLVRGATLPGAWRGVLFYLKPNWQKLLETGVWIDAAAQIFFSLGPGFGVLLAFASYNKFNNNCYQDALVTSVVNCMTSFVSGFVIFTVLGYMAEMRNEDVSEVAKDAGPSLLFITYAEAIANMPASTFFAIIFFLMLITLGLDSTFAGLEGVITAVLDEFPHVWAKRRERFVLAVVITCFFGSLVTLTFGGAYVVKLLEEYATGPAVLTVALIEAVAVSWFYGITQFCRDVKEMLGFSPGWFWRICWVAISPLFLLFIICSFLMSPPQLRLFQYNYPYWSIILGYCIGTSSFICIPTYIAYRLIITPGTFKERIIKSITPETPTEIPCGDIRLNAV

[3] = Water solubility (UHPLC-PDA); type: physicochemical; conditions: free base, ultrapure water, rt
[4] = test system: capsaicin-induced mechanical hypersensitivity (allodynia) in mice; test: Capsaicin-induced mechanical hypersensitivity (allodynia) in mice; type: in vivo; conditions: for antiallodynic effect on capsaicin-induced allodynia (in words): 30 min before capsaicin; for response latency to mechanical stimulation: 40 mg/kg s.c., non-sensitized 44.19 ± 2.59 s, capsaicin + solvent 13.51 ± 1.93 s, mean ± SEM; for dose of maximum antiallodynic effect: capsaicin-induced mechanical hypersensitivity
Protocol: We tested the effect of several of our compounds in capsaicin-induced mechanical hypersensitivity (allodynia) in mice (Figure 5). The increase in pain sensitivity in the area surrounding capsaicin injection results from central sensitization, and this process plays a pivotal role in chronic pain development and maintenance.[29]
Experiments were performed in female WT-CD1 mice (Charles River, Barcelona, Spain) weighing 25–30 g. […] The behavioral test was conducted during the light phase (from 9:00 to 15:00 h) and randomly throughout the estrous cycle.
Drug solutions were prepared immediately before the start of the experiments and injected s.c. in a volume of 5 mL/kg into the interscapular area. […] To test for the effects of PRE-084 on the antiallodynia induced by the other drugs, it was administered 5 min before the latter. Capsaicin was dissolved in 1% DMSO in physiological sterile saline to a concentration of 0.05 μg/μL. […] Control animals were injected with the same volume of the vehicle of capsaicin.
Animals were placed for 2 h in individual black-walled test compartments, which were situated on an elevated mesh-bottom platform with a 0.5 cm^2 grid to provide access to the ventral surface of the hind paws. […] Briefly, a nonflexible filament (0.5 mm diameter) was electronically driven into the ventral side of the right hind paw at least 5 mm away from the site of the injection toward the fingers. The intensity of the stimulation was set at 0.5g force.[30] When a paw withdrawal response occurred, the stimulus was automatically terminated, and the response latency was recorded. The filament was applied three times, separated by intervals of 0.5 min. The mean value of the three trials was considered the withdrawal latency time of the animal. A cutoff time of 50 s was used in each trial.

hERG = hERG (Homo sapiens, UniProt Q12809); test: hERG activity (Qube APC electrophysiology, CHO-K1 cells expressing human ERG); type: cell-based; conditions: CHO-K1 cells that express human ERG, six concentrations 10^-10 to 10^-5 M
hERG, sequence (Q12809 whole entry): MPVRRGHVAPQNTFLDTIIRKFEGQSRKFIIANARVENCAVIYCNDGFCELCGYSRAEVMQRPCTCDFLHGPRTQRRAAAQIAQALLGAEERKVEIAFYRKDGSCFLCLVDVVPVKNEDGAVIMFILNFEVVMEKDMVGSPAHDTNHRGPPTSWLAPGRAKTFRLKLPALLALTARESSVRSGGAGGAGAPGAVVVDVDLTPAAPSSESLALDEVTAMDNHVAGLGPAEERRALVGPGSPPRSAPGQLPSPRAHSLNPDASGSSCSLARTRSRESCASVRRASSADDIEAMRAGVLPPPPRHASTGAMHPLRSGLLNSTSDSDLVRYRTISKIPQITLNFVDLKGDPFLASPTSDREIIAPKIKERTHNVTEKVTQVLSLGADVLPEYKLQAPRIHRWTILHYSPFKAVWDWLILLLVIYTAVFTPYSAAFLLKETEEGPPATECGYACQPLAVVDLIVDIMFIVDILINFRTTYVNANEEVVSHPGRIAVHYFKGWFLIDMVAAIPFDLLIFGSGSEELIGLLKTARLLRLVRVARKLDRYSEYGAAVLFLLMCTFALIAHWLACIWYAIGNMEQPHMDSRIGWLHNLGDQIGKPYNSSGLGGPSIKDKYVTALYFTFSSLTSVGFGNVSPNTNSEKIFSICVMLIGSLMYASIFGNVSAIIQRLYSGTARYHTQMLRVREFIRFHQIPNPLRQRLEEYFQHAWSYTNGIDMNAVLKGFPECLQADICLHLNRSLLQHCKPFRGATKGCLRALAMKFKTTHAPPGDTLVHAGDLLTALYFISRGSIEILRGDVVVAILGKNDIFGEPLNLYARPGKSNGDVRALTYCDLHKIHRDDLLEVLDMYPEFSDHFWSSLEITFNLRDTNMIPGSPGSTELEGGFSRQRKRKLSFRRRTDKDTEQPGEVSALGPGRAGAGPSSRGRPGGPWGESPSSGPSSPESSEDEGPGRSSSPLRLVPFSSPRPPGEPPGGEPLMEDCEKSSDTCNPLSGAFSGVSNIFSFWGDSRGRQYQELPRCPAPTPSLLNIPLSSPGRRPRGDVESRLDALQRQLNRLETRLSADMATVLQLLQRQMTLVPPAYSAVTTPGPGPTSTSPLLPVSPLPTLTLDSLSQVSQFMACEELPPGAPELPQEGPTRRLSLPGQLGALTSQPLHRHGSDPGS

mice = test: Rotarod test (motor coordination); type: in vivo; conditions: 9d 1.25 mg/kg s.c., pregabalin 60 mg/kg s.c.; 45-240 min after administration
Protocol: The rotarod test is the most standard test to assess motor function and coordination in rodents. It consists of a rotating rod where the animal is placed, and the latency to fall is measured. Drugs that negatively affect motor coordination decrease the latency to fall.[2]
Motor coordination was assessed with an accelerating rotarod (Cibertec, Madrid, Spain), as previously described.[34] Briefly, mice were required to walk against the motion of an elevated rotating drum at increasing speed (4–80 rpm over 5 min), and the latency to fall was recorded with a cut-off time of 300 s. Mice were given three training sessions 24 h before drug testing. On the day of the test, rotarod latencies were measured immediately before the drug or vehicle (saline 5% DMSO) was administered (time 0) and several times (45, 90, 150, and 240 min) after the s.c. drug administration. As a comparison drug, we used pregabalin (60 mg/kg, s.c.), which has been reported to impair rotarod performance.[34]

S1R [5] = target: T2, S1R (Rattus norvegicus, UniProt Q9R0C9); test: S1R functional assay (radioligand binding with/without phenytoin, rat liver)
T2 construct: liver homogenates from male Sprague Dawley rats; from tissue; host or cells: rat liver homogenate (male Sprague Dawley)
T2 sequence (Q9R0C9 whole entry): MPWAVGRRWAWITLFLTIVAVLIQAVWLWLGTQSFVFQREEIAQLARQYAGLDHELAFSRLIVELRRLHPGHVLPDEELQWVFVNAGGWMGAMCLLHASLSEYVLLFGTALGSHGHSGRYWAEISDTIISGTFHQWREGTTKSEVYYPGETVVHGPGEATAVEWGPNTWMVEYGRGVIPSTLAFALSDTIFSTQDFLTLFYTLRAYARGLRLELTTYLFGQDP

[6] = test system: human corneal epithelial cells (HCE); test: MTT cell viability assay in HCE cells; conditions: 20 h incubation; for HCE cells cell viability reduction (MTT): 100 μM
[7] = Chemical stability in phosphate buffer pH 7.4; type: physicochemical; conditions: phosphate buffer pH 7.4, 37 °C; read-out: chemical stability T1/2
Human plasma stability = type: in vitro ADME; conditions: pH 7.4, 37 °C, read-out: plasma stability T1/2
[8] = Metabolic stability in mouse liver microsomes; type: in vitro ADME
Protocol: as §1, §2

[9] = test system: human corneal epithelial cells (HCE); test: LDH cytotoxicity assay in HCE cells; type: cell-based; conditions: 100 μM, 20 h incubation
Protocol: The permeability of cellular membranes following the exposures was determined by measuring the amount of released LDH (lactate dehydrogenase) enzyme from HCE cells. The commercial CytoTox 96 kit (Promega, Fitchburg, WI, USA) was used according to the manufacturer’s instructions. To measure maximal LDH release, 10 μL of 10× lysis solution was added to control wells 45 min before adding the CytoTox 96 reagent. To measure the amount of released LDH, 50 μL of each well was transferred to a fresh 96-well plate and 50 μL of CytoTox 96 reagent was added followed by a 30 min incubation period. Finally, 50 μL of stop solution was added and absorbance was recorded at 490 nm (Synergy H1 Hybrid Reader, BioTek, Winooski, VT, USA). Absorbance values were corrected by background values, and the percentage of LDH release was calculated using the following formula: 100 × experimental LDH release optical density (OD)/maximum LDH release OD.

[10] = target: T3, human serotonin 5-HT2A receptor (Homo sapiens, UniProt P28223); test: 5-HT2A receptor binding ([3H]Ketanserin)
T3 construct: host or cells: CHO-K1 cells
T3 sequence (P28223 whole entry): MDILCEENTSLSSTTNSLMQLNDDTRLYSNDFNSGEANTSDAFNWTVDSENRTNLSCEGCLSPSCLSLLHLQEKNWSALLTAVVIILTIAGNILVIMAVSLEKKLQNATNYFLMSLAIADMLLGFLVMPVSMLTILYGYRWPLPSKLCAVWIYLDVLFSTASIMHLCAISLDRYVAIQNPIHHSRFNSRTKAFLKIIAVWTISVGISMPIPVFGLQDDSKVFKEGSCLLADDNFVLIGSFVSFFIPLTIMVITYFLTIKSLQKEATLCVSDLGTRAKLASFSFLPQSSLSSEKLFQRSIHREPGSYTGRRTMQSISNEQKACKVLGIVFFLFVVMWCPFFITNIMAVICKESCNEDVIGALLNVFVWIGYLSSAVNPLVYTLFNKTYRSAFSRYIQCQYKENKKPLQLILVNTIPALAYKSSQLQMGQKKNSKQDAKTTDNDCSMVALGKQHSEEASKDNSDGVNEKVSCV

S1R [11] = target: T2, S1R; test: S1R radioligand binding assay ([3H]-(+)-pentazocine, rat liver homogenates); conditions: mean ± SD of at least two experiments in duplicate
S2R = target: T4, S2R (Rattus norvegicus, UniProt Q5U3Y7); test: S2R radioligand binding assay ([3H]DTG with (+)-pentazocine mask, rat liver homogenates)
T4 construct: liver homogenates from male Sprague Dawley rats; from tissue; host or cells: rat liver homogenate (male Sprague Dawley)
T4 sequence (Q5U3Y7 1-176): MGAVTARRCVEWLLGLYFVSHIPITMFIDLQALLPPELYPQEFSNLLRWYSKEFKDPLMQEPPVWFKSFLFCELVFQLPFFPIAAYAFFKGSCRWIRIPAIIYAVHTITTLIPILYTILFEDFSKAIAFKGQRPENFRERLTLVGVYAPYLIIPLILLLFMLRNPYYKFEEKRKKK

## N#Cc1ccc(N2CCC3(CCN(CCc4ccccc4)C3)C2)cc1 (stereo not shown) [9d, 4-(7-Phenethyl-2,7-diazaspiro[4.4]nonan-2-yl)benzonitrile]
[1]; 1 h incubation
  microsomal CLint at 1 h, 0.1 µM: 127 µL/min/mg
[1]; 1 h incubation, read-out: human liver microsomes T1/2
  half-life at 1 h, 0.1 µM: 0.917 h
[1]; read-out: human liver microsomes metabolic half-time (T1/2) (converted)
  half-life at 0.1 μM: ~1 h
[2]
  inhibition at 1 µM: < 50%
[2]; at 1 μM
  SERT % inhibition: 39%
[3]
  solubility at 24 h: 710 µg/mL and 2140 µM
[4]; PRE-084 32 mg/kg s.c. given 5 min before the compound at its dose of maximum effect
  effect of PRE-084 on the antiallodynic effect of the compound: fully reversed
[4]; s.c.
  antiallodynic effect on capsaicin-induced allodynia (in words): dose-dependent and full reversal of capsaicin-induced allodynia
hERG
  IC50: 85 nM
mice
  latency to fall from the rotarod (in words): no change in the latency to fall
S1R [5]
  S1R functional profile: antagonist
[6]
  HCE cells cell viability reduction (MTT): 28%
[7]
  half-life: > 24 h
Human plasma stability
  half-life: > 24 h
[8]; 1 h incubation
  microsomal CLint at 1 h, 0.1 µM: 124 µL/min/mg
[8]; 1 h incubation, read-out: mouse liver microsomes T1/2
  half-life at 1 h, 0.1 µM: 0.933 h
[8]; read-out: mouse liver microsomes metabolic half-time (T1/2) (converted)
  half-life at 0.1 μM: ~1 h
[9]
  HCE cells cytotoxicity (LDH release): 18%
[10]
  inhibition at 1 µM: < 50%
[10]; at 1 μM
  5-HT2A % inhibition: 42%

## c1ccc(CCN2CCC3(CCN(c4ccccc4)C3)C2)cc1 (stereo not shown) [8a, 2-Phenethyl-7-phenyl-2,7-diazaspiro[4.4]nonane]
[4]
  response latency to mechanical stimulation: 30.28 ± 5.02 s
[4]; s.c.
  antiallodynic effect on capsaicin-induced allodynia (in words): dose-dependent antiallodynic effects
  dose of maximum antiallodynic effect: 20 mg/kg
[6]
  HCE cells cell viability reduction (MTT): 50%
[9]
  HCE cells cytotoxicity (LDH release): 16%

## Cl.O=C(OCCN1CCOCC1)C1(c2ccccc2)CCCCC1 [PRE-084, reference compound]
[6]
  HCE cells cell viability reduction (MTT): 58%
[6]; HCE cells
  concentration above which cell viability is statistically significantly reduced (MTT): above 20 μM

## O=C(Cc1ccc(Cl)c(Cl)c1)N1CCC2(CCN(CCc3ccccc3)C2)C1 (stereo not shown) [15a, 2-(3,4-Dichlorophenyl)-1-(7-phenethyl-2,7-diazaspiro[4.4]nonan-2-yl)ethan-1-one]
S1R [11]
  Ki: 7.5 ± 1 nM
[4]; s.c.
  antiallodynic effect on capsaicin-induced allodynia (in words): dose-dependent and full antiallodynic effect
  dose of maximum antiallodynic effect: 40 mg/kg

## CC(C)(C)OC(=O)N1CCC2(CCN(c3ccccc3)C2)C1 (stereo not shown) [6a, tert-Butyl-7-phenyl-2,7-diazaspiro[4.4]nonane-2-carboxylate]
S1R [11]
  Ki: 40.7 ± 0.95 nM
S2R
  Ki: 76.1 ± 1.2 nM

## c1ccc(CCN2CCC3(CCN(CCc4ccccc4)C3)C2)cc1 [14a, 2,7-Diphenethyl-2,7-diazaspiro[4.4]nonane]
[4]
  response latency to mechanical stimulation: 26.55 ± 3.55 s
[4]; s.c.
  antiallodynic effect on capsaicin-induced allodynia (in words): dose-dependent antiallodynic effects
  dose of maximum antiallodynic effect: 20 mg/kg
[6]
  HCE cells cell viability reduction (MTT): 56%
[9]
  HCE cells cytotoxicity (LDH release): 13%

## CC(C)C[C@H](CN)CC(=O)O [pregabalin, reference compound]
mice
  latency to fall from the rotarod (in words): markedly reduced rotarod latencies

## O=[N+]([O-])c1ccc(N2CCC3(CCN(CCc4ccccc4)C3)C2)cc1 (stereo not shown) [9a, 2-(4-Nitrophenyl)-7-phenethyl-2,7-diazaspiro[4.4]nonane]
[4]; s.c.
  dose from which significant antiallodynic effects are seen: 5 mg/kg
  antiallodynic effect on capsaicin-induced allodynia (in words): dose-dependent and full reversal of capsaicin-induced allodynia
  dose of maximum antiallodynic effect: 10 mg/kg
[9]
  HCE cells cytotoxicity (LDH release): 23%

## CN1CCN(CCc2ccc(Cl)c(Cl)c2)CC1 [BD1063, 1-[2-(3,4-dichlorophenyl)ethyl]-4-methylpiperazine dihydrochloride, reference compound]
S1R [11]
  Ki: 14 ± 2.7 nM
